Results on ten compounds are retold here after US11052092B2, “N-{[2-(piperidin-1-yl)phenyl](phenyl)methyl}-2-(3-oxo-3,4-dihydro-2H-1,4-benzoxazin-7-yl)acetamide derivatives and related compounds as ROR-gamma modulators for treating autoimmune diseases” (Genfit, priority 2017, dated 2021).

The target in test [1] is T1, RORγt ligand-binding domain (RORγt-LBD) (Homo sapiens, UniProt P51449).
T1 construct: 20 nM recombinantly expressed RORγ-LBD fused to GST
T1 sequence (P51449 269-508 limits assumed): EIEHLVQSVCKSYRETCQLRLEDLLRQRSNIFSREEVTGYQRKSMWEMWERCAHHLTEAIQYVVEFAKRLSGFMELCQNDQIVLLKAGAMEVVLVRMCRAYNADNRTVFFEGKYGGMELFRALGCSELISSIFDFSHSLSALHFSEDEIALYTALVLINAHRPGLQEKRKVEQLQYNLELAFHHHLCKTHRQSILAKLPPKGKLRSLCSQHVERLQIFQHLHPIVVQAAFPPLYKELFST
The test is described as follows: Time-resolved FRET (TR-FRET) RORγt coactivator assay. Conditions: GST-RORγ-LBD, biotinylated RIP140 peptide, 2 hours at room temperature. The source says: Time-resolved FRET (TR-FRET) RORγt coactivator assay was used to identify RORγ modulator compounds with ligand-dependent coactivator displacement. The assay uses a d2-labeled anti-GST antibody, synthetic N-terminally biotinylated peptide which is derived from nuclear receptor coactivator protein RIP140, and a RORγt ligand-binding domain (RORγt-LBD) that is tagged with glutathione-S-transferase (GST). The influence of compounds on the RORγ-peptide interaction relies on the binding dependent energy transfer from a donor to an acceptor fluorophor attached to the binding partner of interest. […] For reduction of background from compound fluorescence, TR-FRET method makes use of generic fluorophore labels and time resolved detection.
The assays were done in a final volume of 20 μl in a 384 well plate in a CHAPS buffer (2 mM CHAPS; 1 mM DTT, 2 mM EDTA; 0.1% BSA), containing 20 nM recombinantly expressed RORγ-LBD fused to GST, 30 nM N-terminally biotinylated peptide, 1 nM streptavidin-terbium conjugate and 20 nM d2 labeled-anti-GST. Test compounds were diluted using 10 mM stock solution. The range of the final compound concentrations used in this test was from 0.3 nM to 30 μM (logarithmic scale). DMSO content of the samples was kept at 1%. The assay was equilibrated for 2 hours in the dark at room temperature in 384 well plates (Falcon). The signal was detected by an Ultra384 reader (TECAN). […] Compounds that promote coactivator displacement induce a concentration-dependent decrease in time-resolved fluorescent signal. Data were collected and analyzed using GraphPad Prism software (GraphPad Software V5.02, San Diego Calif. USA). IC50 in μM and Emax in % were reported for each compound.
Background: Time-resolved FRET reads energy transfer from a long-lived donor to a nearby acceptor.

Test [2] deals with T2, human RORγt (Homo sapiens, UniProt P51449).
T2 construct: the full-length cDNA of human RORγt; expressed in transfected cells; host or cells: COS-7 (monkey kidney)
T2 sequence (P51449 1-497 isoform P51449-2): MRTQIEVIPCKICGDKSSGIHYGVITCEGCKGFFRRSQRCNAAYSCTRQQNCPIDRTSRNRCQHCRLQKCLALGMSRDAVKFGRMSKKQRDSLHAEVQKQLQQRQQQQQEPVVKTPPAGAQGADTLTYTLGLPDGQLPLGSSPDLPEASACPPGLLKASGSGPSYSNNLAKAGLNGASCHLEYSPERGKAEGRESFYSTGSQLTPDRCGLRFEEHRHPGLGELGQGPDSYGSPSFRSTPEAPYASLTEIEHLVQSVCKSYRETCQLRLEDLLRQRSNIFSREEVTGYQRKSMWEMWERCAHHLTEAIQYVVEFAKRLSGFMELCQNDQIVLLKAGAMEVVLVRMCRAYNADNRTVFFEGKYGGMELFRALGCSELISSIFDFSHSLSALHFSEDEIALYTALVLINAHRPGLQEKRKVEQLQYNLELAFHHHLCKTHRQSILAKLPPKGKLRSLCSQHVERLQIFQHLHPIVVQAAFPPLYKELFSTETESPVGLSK
Nature of the test: RORE Luciferase/RORγt transactivation assay. Conditions: COS-7 cells transfected with human IL-17 promoter luciferase reporter and RORγt plasmid; 20 h with compound; read-out: IC50, RORγt activity inhibition. The format is cell-based. The gist of the method:
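Transactivation read-out: luminescence (Steady-Glo, 30 min at room temperature) from COS-7 cells carrying a RORγt expression plasmid plus a 4.3 kb IL-17 promoter luciferase reporter. Compound exposure was in serum-free DMEM with 0.3% DMSO final. Reported values are IC50 (μM) and Emax (%).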
For orientation: Reporter assays use an easily measured gene product as a stand-in for the process of interest.

Test [3] deals with Murine EL-4 lymphoma cell line overexpressing human RORγt. The test is described as follows: IL-17 secretion from EL4 murine lymphoma. The format is cell-based. The following applies: Mus musculus; human RORγt-transfected EL4 cells, PMA (10 ng/mL) and ionomycin (1 μM), 24 h; read-out: IC50, IL-17 secretion inhibition. Put shortly: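 EL-4 cells electroporated with hRORγt plasmid, seeded at 150000 cells/well and pretreated with compound for 24 h, then stimulated with PMA (10 ng/mL) plus ionomycin (1 μM final) with compound for a further 24 h at 37 °C. IL-17 in supernatant measured by HTRF or ELISA.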

For orientation: IC50 means the midpoint of a concentration-inhibition curve. As to `Cc1ccc(C(NC(=O)C2(c3ccc4[nH]cc(CCO)c4c3)CC2)c2ccc(C)o2)c(C)c1` (stereo not drawn) [Cpd. 60, N-[(2,4-dimethylphenyl)(5-methylfuran-2-yl)methyl]-1-[3-(2-hydroxyethyl)-1H-indol-5-yl]cyclopropane-1-carboxamide], the concentration for half-maximal inhibition (IC50) is less than 10 nM in test [1], less than 10 nM in test [2] and less than 100 nM in test [3].

`Cc1ccc(C(NC(=O)Cc2ccc3[nH]cc(C)c3c2)c2ccc(C)o2)c(N2CCCCC2)c1` (stereo not drawn) [Cpd. 64, 2-(3-methyl-1H-indol-5-yl)-N-{[4-methyl-2-(piperidin-1-yl)phenyl](5-methylfuran-2-yl)methyl}acetamide]: the results for the IC50 in test [1], in test [2] and in test [3] were 100 to 1000 nM, 10 to 100 nM and less than 100 nM, respectively.

Regarding `Cc1ccc(C(NC(=O)C2(c3ccc4c(c3)CS(=O)(=O)N4)CC2)c2ccc(C)o2)c(N(C)C)c1` (stereo not drawn) [Cpd. 71, N-{[2-(dimethylamino)-4-methylphenyl](5-methylfuran-2-yl)methyl}-1-(2,2-dioxo-1,3-dihydro-2,1-benzothiazol-5-yl)cyclopropane-1-carboxamide], the concentration for half-maximal inhibition (IC50) in test [1] is less than 10 nM; in test [2] it was 10 to 100 nM; in test [3], 100 to 1000 nM.

For `Cc1ccc(C(NC(=O)C2(c3ccc4c(c3)CS(=O)(=O)C4)CC2)c2ccc(C)o2)c(C)c1` (stereo not drawn) [Cpd. 74, N-[(2,4-dimethylphenyl)(5-methylfuran-2-yl)methyl]-1-(2,2-dioxo-1,3-dihydro-2-benzothiophen-5-yl)cyclopropane-1-carboxamide], the IC50 in test [1] is less than 10 nM; in test [2], 10 to 100 nM; in test [3] it was 100 to 1000 nM.

Turning to `Cc1ccc(C(NC(=O)Cc2ccc3[nH]c(C)nc3c2)c2ccc(C)o2)c(Br)c1` (stereo not drawn) [Cpd. 77, N-[(2-bromo-4-methylphenyl)(5-methylfuran-2-yl)methyl]-2-(2-methyl-1H-1,3-benzodiazol-5-yl)acetamide], the IC50 in test [1] is less than 10 nM; in test [2] it was 10 to 100 nM; in test [3], 100 to 1000 nM.

On to `Cc1ccc(C(NC(=O)Cc2ccc3[nH]c(C)nc3c2)c2ccccc2)c(N2CCCC2)c1` (stereo not drawn) [Cpd. 82, 2-(2-methyl-1H-1,3-benzodiazol-5-yl)-N-{[4-methyl-2-(pyrrolidin-1-yl)phenyl](phenyl)methyl}acetamide], for which the figures for the half-maximal inhibitory concentration (IC50) in test [1], in test [2] and in test [3] were 10 to 100 nM, 10 to 100 nM and 100 to 1000 nM, respectively.

For the compound `Cc1ccc(C(NC(=O)C2(c3ccc4c(c3)CC(=O)N4)CC2)c2ccc(Cl)o2)c(C)c1` (stereo not drawn) [Cpd. 86, N-[(5-chlorofuran-2-yl)(2,4-dimethylphenyl)methyl]-1-(2-oxo-2,3-dihydro-1H-indol-5-yl)cyclopropane-1-carboxamide], the IC50 in test [1] is less than 10 nM; in test [2], less than 10 nM; in test [3], less than 100 nM.

Consider `Cc1ccc(C(NC(=O)C2(c3ccc4c(c3)CS(=O)(=O)N4)CC2)c2ccc(Cl)o2)c(C)c1` (stereo not drawn) [Cpd. 87, N-[(5-chlorofuran-2-yl)(2,4-dimethylphenyl)methyl]-1-(2,2-dioxo-1,3-dihydro-2,1-benzothiazol-5-yl)cyclopropane-1-carboxamide], for which the IC50 was less than 10 nM in test [1], 10 to 100 nM in test [2] and less than 100 nM in test [3].

For the compound `CCOc1nc2cc(CC(=O)NC(c3ccccc3)c3ccc(C)cc3Br)ccc2[nH]1` (stereo not drawn) [Cpd. 90, N-[(2-bromo-4-methylphenyl)(phenyl)methyl]-2-(2-ethoxy-1H-1,3-benzodiazol-5-yl)acetamide], the results for the half-maximal inhibitory concentration (IC50) in test [1], in test [2] and in test [3] were 10 to 100 nM, 10 to 100 nM and 100 to 1000 nM, respectively.

Regarding `CSc1ccc2cc(CC(=O)NC(c3ccc(C)o3)c3ccc(C)cc3N3CCCCC3)ccc2c1` (stereo not drawn) [Cpd. 91, N-{[4-methyl-2-(piperidin-1-yl)phenyl](5-methylfuran-2-yl)methyl}-2-[6-(methylsulfanyl)naphthalen-2-yl]acetamide], the values for the IC50 in test [1], in test [2] and in test [3] were 100 to 1000 nM, 10 to 100 nM and 100 to 1000 nM, respectively.
